The target in one test is T1, FXR ligand binding domain (GST-FXR LBD fusion protein, human FXR aa 193-473) (Homo sapiens, UniProt Q96RI1).
T1 construct: fused on or other part: Glutathione-S-transferase (GST) fused N-terminally to the FXR LBD, used to capture the protein on glutathione SPA beads
T1 sequence (Q96RI1 211-486 limits assumed): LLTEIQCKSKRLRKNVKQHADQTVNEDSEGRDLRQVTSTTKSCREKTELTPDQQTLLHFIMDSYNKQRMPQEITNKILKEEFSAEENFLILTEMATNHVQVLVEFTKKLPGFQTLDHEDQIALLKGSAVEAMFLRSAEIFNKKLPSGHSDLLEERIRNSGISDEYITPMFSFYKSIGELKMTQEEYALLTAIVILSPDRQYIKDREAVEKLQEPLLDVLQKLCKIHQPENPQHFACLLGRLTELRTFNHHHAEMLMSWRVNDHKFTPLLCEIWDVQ
The test is described as follows: Radioligand binding assay (scintillation proximity, radioligand displacement). As to conditions: 40 nM GST-FXR LBD on SPA beads, test compound 6×10^−9 M to 2.5×10^−5 M, read-out: h-IC50 Binding. The method, boiled down:
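40 nM GST-FXR LBD, E. coli-expressed, bound to glutathione yttrium silicate SPA beads in 50 mM Hepes pH 7.4, 10 mM NaCl, 5 mM MgCl2, 0.01% CHAPS. Test compounds displace radioligand (e.g. 20 nM benzimidazolyl-acetamide ligand); bound ligand measured by scintillation proximity counting.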
(In general: In a scintillation proximity assay essentially only radioactivity close to the scintillant gives light.)
A word on the IC50: it is the concentration at which inhibition is half-maximal. `O=C(O)C1(Oc2ccc(OCC(C3CCCCC3)n3c(-c4ccc(Cl)cc4)nc4cc(F)c(F)cc43)cc2)CCC1` (single isomer, unassigned; (-)) [Example 119, (−)-1-(4-{2-[2-(4-Chloro-phenyl)-5,6-difluoro-benzoimidazol-1-yl]-2-cyclohexyl-ethoxy}-phenoxy)-cyclobutanecarboxylic acid]: the IC50 is 110 nM.
Same read-out and setting: then `O=C(O)C1(Oc2ccc(OCC(C3CCCCC3)n3c(-c4ccc(Cl)cc4)nc4cc(F)c(F)cc43)cc2)CC1` (single isomer, unassigned; (-)) [Example 121, (−)-1-(4-{2-[2-(4-Chloro-phenyl)-5,6-difluoro-benzoimidazol-1-yl]-2-cyclohexyl-ethoxy}-phenoxy)-cyclopropanecarboxylic acid], with 20 nM; and `Cc1cc(Cl)ccc1-c1nc2cc(F)c(F)cc2n1C(COc1c(F)cc(C(=O)O)cc1F)C1CCCCC1` (single isomer, unassigned; (-)) [Example 125, (−)-4-{2-[2-(4-Chloro-2-methyl-phenyl)-5,6-difluoro-benzoimidazol-1-yl]-2-cyclohexyl-ethoxy}-3,5-difluoro-benzoic acid], with 10 nM.
Still for that read-out and setting: then `O=C(O)c1cc(F)c(OCC(C2CCCCCC2)n2c(-c3ccc(Cl)cc3)nc3cc(F)c(F)cc32)c(F)c1` (single isomer, unassigned; (-)) [Example 132, (−)-4-{2-[2-(4-Chloro-phenyl)-5,6-difluoro-benzoimidazol-1-yl]-2-cycloheptyl-ethoxy}-3,5-difluoro-benzoic acid], with 10 nM; and `O=C(O)c1ccc(CCC(C2CCCCC2)n2c(-c3ccccc3)nc3cc(F)c(F)cc32)cc1` (single isomer, unassigned; (-)) [Example 143, (−)-4-[3-Cyclohexyl-3-(5,6-difluoro-2-phenyl-benzoimidazol-1-yl)-propyl]-benzoic acid], with 3 nM.
As to `COc1ccc(-c2nc3cc(F)c(F)cc3n2C(CCc2ccc(C(=O)O)cc2)C2CCCCC2)c(OC)n1` (single isomer, unassigned; (-)) [Example 146, (−)-4-{3-Cyclohexyl-3-[2-(2,6-dimethoxy-pyridin-3-yl)-5,6-difluoro-benzoimidazol-1-yl]-propyl}-benzoic acid], the half-inhibitory concentration (IC50) turned out to be 1 nM.
Still for that read-out and setting: the same measure for `Fc1cc2nc(-c3ccc(Cl)cc3)n([C@H](COCC3CCCCC3)C3CCCCC3)c2cc1F` [Example 3, (+)-2-(4-Chloro-phenyl)-1-((S)-1-cyclohexyl-2-cyclohexylmethoxy-ethyl)-5,6-difluoro-1H-benzoimidazole]: 32100 nM.
Same read-out and setting: then `O=C(O)c1ccc(OCC(C2CCCCC2)n2c(-c3ccc(Cl)cc3)nc3cc(F)c(F)cc32)cc1` (stereo not drawn) [Example 4, 4-{2-[2-(4-Chloro-phenyl)-5,6-difluoro-benzoimidazol-1-yl]-2-cyclohexyl-ethoxy}-benzoic acid], with 70 nM; and `Cc1cc(C(=O)O)ccc1OCC(C1CCCCC1)n1c(-c2ccc(Cl)cc2)nc2cc(F)c(F)cc21` (stereo not drawn) [Example 11, 4-{2-[2-(4-Chloro-phenyl)-5,6-difluoro-benzoimidazol-1-yl]-2-cyclohexyl-ethoxy}-3-methyl-benzoic acid], with 20 nM; and `O=C(O)c1ccccc1OCC(C1CCCCC1)n1c(-c2ccc(Cl)cc2)nc2cc(F)c(F)cc21` (stereo not drawn) [Example 14, 2-{2-[2-(4-Chloro-phenyl)-5,6-difluoro-benzoimidazol-1-yl]-2-cyclohexyl-ethoxy}-benzoic acid], with 2000 nM.

The same test, now with this note: h-IC50 Binding, 40 nM GST-FXR LBD on SPA beads, test compound 6×10^−9 M to 2.5×10^−5 M.
In turn, `O=C(O)c1ccc(OCC(C2CCCCC2)n2c(-c3ccc(Cl)cc3)nc3cc(F)c(F)cc32)c(F)c1` (stereo not drawn) [Example 7, 4-{2-[2-(4-Chloro-phenyl)-5,6-difluoro-benzoimidazol-1-yl]-2-cyclohexyl-ethoxy}-3-fluorobenzoic acid] had a half-maximal inhibitory concentration (IC50) of 20 nM.
For the compound `O=C(O)c1ccc(OCC(C2CCCCC2)n2c(-c3ccc(Cl)cc3)nc3cc(F)c(F)cc32)c(Cl)c1` (stereo not drawn) [Example 10, 3-Chloro-4-{2-[2-(4-chloro-phenyl)-5,6-difluoro-benzoimidazol-1-yl]-2-cyclohexyl-ethoxy}-benzoic acid], the IC50 was 30 nM.
